# According to US20230233569A1 (Revolution Medicines, Inc., priority 2020, published 2023):
# Like-named read-outs stand apart in the source and are kept apart here.
# Assays:
# NRAS Q61R = NRAS Q61R (Homo sapiens, UniProt P01111+P62937, Q61R); assay: Disruption of BRAF RBD interaction with Ras (FRET / MOA assay, with Cyclophilin A); type: biochemical; settings: NRAS Q61R; read-out: NRAS Q61R FRET data IC50
# How it was run: (§1)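 IC50 reflects compound-driven Ras:Cyclophilin A ternary complex displacing BRAF RBD, read as lowered TR-FRET ratio relative to DMSO after Eu anti-His (10 nM) and APC anti-GST (50 nM) detection for 1.5 h. Prior incubation 3 h, 25° C, with 12.5 nM GMPPNP-loaded Ras, 50 nM BRAF RBD, 25 μM Cyclophilin A; top compound 30 μM.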
# NRAS Q61K = NRAS Q61K (Homo sapiens, UniProt P01111+P62937, Q61K); assay: as above; type: biochemical; settings: NRAS Q61K; read-out: NRAS Q61K FRET data IC50
# NRAS Q61K, sequence (P01111 whole entry Q61K): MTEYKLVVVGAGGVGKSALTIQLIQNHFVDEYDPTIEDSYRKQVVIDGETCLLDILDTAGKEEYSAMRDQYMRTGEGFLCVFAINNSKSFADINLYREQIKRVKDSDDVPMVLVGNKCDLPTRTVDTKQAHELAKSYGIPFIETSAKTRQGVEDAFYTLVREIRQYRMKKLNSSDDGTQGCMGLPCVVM
# NRAS Q61K, sequence (P62937 whole entry): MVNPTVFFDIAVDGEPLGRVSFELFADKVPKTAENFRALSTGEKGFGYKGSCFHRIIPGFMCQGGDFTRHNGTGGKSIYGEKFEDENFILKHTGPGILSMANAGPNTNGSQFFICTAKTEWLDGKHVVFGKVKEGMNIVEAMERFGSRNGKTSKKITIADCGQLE
# How it was run: as §1
# NRAS WT = NRAS WT (Homo sapiens, UniProt P01111+P62937); assay: as above; type: biochemical; settings: NRAS WT; read-out: NRAS WT FRET data IC50
# NRAS WT, sequence (P01111 whole entry): as the sequence (P01111 whole entry Q61K) above, with K61Q counted along it
# NRAS WT, sequence (P62937 whole entry): as the sequence (P62937 whole entry) above
# How it was run: as §1
# KRAS Q61H = KRAS Q61H (Homo sapiens, UniProt P01116+P62937, Q61H); assay: as above; type: biochemical; settings: KRAS Q61H; read-out: KRAS Q61H FRET data IC50
# KRAS Q61H, sequence (P01116 1-169 isoform P01116-2 Q61H limits assumed): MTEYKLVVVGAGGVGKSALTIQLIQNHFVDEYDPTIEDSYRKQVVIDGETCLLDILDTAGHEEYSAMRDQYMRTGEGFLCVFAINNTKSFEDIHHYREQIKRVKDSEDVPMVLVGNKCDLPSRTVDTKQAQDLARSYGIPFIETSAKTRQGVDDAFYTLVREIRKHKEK
# KRAS Q61H, sequence (P62937 whole entry): as the sequence (P62937 whole entry) above
# How it was run: as §1
# Capan-1 (K-Ras G12V) = assay: CellTiter-Glo cell viability assay, 5-day treatment; type: cell-based; settings: Homo sapiens, CAPAN-1, 120 h
# How it was run: (§2)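 Compounds were dispensed directly onto seeded cells and incubated for 5 days, then plates were equilibrated to room temperature for about 30 minutes before luminescence reading. Signals were expressed as percent of the mean DMSO control and fitted with a four-parameter logistic curve.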
# NCI-H358 (K-Ras G12C) = assay: as above; type: cell-based; settings: Homo sapiens, NCI-H358, 120 h
# How it was run: as §2
# KRAS G12S = KRAS G12S (Homo sapiens, UniProt P01116+P62937, G12S); assay: Disruption of BRAF RBD interaction with Ras (FRET / MOA assay, with Cyclophilin A); type: biochemical; settings: read-out: KRAS G12S FRET data, IC50
# KRAS G12S, sequence (P01116 1-169 isoform P01116-2 G12S limits assumed): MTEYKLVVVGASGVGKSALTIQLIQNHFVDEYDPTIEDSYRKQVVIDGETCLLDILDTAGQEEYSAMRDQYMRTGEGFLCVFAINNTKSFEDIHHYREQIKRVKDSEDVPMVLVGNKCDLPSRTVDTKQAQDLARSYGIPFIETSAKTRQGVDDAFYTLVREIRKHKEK
# KRAS G12S, sequence (P62937 whole entry): as the sequence (P62937 whole entry) above
# How it was run: (§3)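 Biochemical TR-FRET disruption assay: nucleotide-loaded K-Ras with Cyclophilin A and a BRAF RBD construct, compound titrated over 10 points from 30 μM (final).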
# KRAS G13C = KRAS G13C (Homo sapiens, UniProt P01116+P62937, G13C); assay: as above; type: biochemical; settings: read-out: KRAS G13C FRET data, IC50
# KRAS G13C, sequence (P01116 1-169 isoform P01116-2 G13C): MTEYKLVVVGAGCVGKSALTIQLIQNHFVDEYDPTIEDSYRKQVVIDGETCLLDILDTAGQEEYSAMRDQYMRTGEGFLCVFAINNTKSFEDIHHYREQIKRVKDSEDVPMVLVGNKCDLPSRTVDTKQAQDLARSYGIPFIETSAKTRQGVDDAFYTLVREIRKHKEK
# KRAS G13C, sequence (P62937 whole entry): as the sequence (P62937 whole entry) above
# How it was run: as §3
# KRAS G12V = KRAS G12V (Homo sapiens, UniProt P01116+P62937, G12V); assay: as above; type: biochemical; settings: KRAS G12V; read-out: KRAS G12V FRET data IC50
# KRAS G12V, sequence (P01116 1-169 isoform P01116-2 G12V limits assumed): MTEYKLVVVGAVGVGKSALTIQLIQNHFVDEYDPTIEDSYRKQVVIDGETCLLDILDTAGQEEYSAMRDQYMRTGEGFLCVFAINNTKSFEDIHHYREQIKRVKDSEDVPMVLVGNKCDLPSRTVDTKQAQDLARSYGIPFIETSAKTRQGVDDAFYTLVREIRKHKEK
# KRAS G12V, sequence (P62937 whole entry): as the sequence (P62937 whole entry) above
# How it was run: as §3
# KRAS WT = KRAS WT (Homo sapiens, UniProt P01116+P62937); assay: as above; type: biochemical; settings: KRAS WT; read-out: KRAS WT FRET data IC50
# KRAS WT, sequence (P01116 1-169 isoform P01116-2 limits assumed): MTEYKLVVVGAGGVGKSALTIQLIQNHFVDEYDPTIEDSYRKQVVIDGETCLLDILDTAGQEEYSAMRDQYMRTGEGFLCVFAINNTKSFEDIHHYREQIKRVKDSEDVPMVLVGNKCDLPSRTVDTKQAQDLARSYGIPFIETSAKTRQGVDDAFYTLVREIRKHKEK
# KRAS WT, sequence (P62937 whole entry): as the sequence (P62937 whole entry) above
# How it was run: as §3
# KRAS G13D = KRAS G13D (Homo sapiens, UniProt P01116+P62937, G13D); assay: as above; type: biochemical; settings: KRAS G13D; read-out: KRAS G13D FRET data IC50
# KRAS G13D, sequence (P01116 1-169 isoform P01116-2 G13D limits assumed): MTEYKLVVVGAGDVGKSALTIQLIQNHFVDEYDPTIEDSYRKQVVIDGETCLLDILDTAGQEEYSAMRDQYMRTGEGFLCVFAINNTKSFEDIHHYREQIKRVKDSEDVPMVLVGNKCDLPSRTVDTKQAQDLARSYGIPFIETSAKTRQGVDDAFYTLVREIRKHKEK
# KRAS G13D, sequence (P62937 whole entry): as the sequence (P62937 whole entry) above
# How it was run: as §3
# NRAS G12C = NRAS G12C (Homo sapiens, UniProt P01111+P62937, G12C); assay: as above; type: biochemical; settings: NRAS G12C; read-out: NRAS G12C FRET data IC50
# NRAS G12C, sequence (P01111 whole entry G12C): as the sequence (P01111 whole entry Q61K) above, with G12C, K61Q counted along it
# NRAS G12C, sequence (P62937 whole entry): as the sequence (P62937 whole entry) above
# KRAS G12D = KRAS G12D (Homo sapiens, UniProt P01116+P62937, G12D); assay: as above; type: biochemical; settings: read-out: KRAS G12D FRET data, IC50
# KRAS G12D, sequence (P01116 1-169 isoform P01116-2 G12D limits assumed): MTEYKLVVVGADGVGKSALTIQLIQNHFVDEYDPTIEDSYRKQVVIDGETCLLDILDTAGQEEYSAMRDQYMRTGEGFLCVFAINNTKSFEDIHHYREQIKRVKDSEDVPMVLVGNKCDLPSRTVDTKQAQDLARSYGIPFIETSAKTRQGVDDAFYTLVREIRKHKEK
# KRAS G12D, sequence (P62937 whole entry): as the sequence (P62937 whole entry) above
# How it was run: as §3
# KRAS G12C = KRAS G12C (Homo sapiens, UniProt P01116+P62937, G12C); assay: as above; type: biochemical; settings: read-out: KRAS G12C FRET data, IC50
# KRAS G12C, sequence (P01116 1-169 isoform P01116-2 G12C): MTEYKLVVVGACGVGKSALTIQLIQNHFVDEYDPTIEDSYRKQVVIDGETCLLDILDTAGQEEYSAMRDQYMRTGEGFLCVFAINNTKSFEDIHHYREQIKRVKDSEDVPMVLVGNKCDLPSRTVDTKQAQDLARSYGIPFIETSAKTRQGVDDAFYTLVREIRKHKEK
# KRAS G12C, sequence (P62937 whole entry): as the sequence (P62937 whole entry) above
# How it was run: as §3
# [1] = read-out: Capan-1 Cell Viability assay data (K-Ras G12V, IC50, uM)
# [2] = 5-day treatment, read-out: Capan-1 Cell Viability assay data (K-Ras G12V, IC50)
# [3] = 5-day treatment, read-out: H358 Cell Viability assay data (K-Ras G12C, IC50)
# NRAS Q61R, sequence (P01111 whole entry Q61R): as the sequence (P01111 whole entry Q61K) above, with K61R counted along it
# NRAS Q61R, sequence (P62937 whole entry): as the sequence (P62937 whole entry) above
SMILES,IC50 (NRAS Q61R),IC50 (NRAS Q61K),IC50 (NRAS WT),IC50 (KRAS Q61H),IC50 (KRAS G12S),IC50 (KRAS G13C),IC50 (KRAS G12V),IC50 (KRAS WT),IC50 (KRAS G13D),IC50 (NRAS G12C),IC50 (KRAS G12D),IC50 (KRAS G12C),IC50 (NCI-H358 (K-Ras G12C); [3]),IC50 (Capan-1 (K-Ras G12V); [1]),"IC50 (NCI-H358 (K-Ras G12C); read-out: H358 Cell Viability assay data (K-Ras G12C, IC50, uM), 5-day treatment)",IC50 (Capan-1 (K-Ras G12V); [2])
CCn1c(-c2cccnc2[C@H](C)OC)c2c3cc(ccc31)-c1csc(n1)C[C@H](NC(=O)[C@H](C(C)C)N(C)C(=O)N1CC3CC(C1)N3C)C(=O)N1CCC[C@H](N1)C(=O)OCC(C)(C)C2 [Example A284],1 to 10 µM,0.1 to 1 µM,0.1 to 1 µM,0.1 to 1 µM,0.1 to 1 µM,0.1 to 1 µM,1 to 10 µM,0.1 to 1 µM,0.1 to 1 µM,0.1 to 1 µM,1 to 10 µM,0.1 to 1 µM,–,0.1 to 1 µM,0.1 to 1 µM,–
"CCn1c(-c2cccnc2[C@H](C)OC)c2c3cc(ccc31)-c1csc(n1)C[C@H](NC(=O)[C@H](C(C)C)N(C)C(=O)N1CC3(CC(N(C)CCO)C3)C1)C(=O)N1CCC[C@H](N1)C(=O)OCC(C)(C)C2 (atropisomer, axis not shown) [Example A467]",0.1 to 1 µM,0.01 to 0.1 µM,0.1 to 1 µM,0.01 to 0.1 µM,0.1 to 1 µM,0.1 to 1 µM,0.1 to 1 µM,0.1 to 1 µM,0.1 to 1 µM,0.01 to 0.1 µM,0.1 to 1 µM,0.01 to 0.1 µM,0.01 to 0.1 µM,–,–,0.01 to 0.1 µM
CCn1c(-c2cc(C3CCN(C)CC3)cnc2[C@H](C)OC)c2c3cc(ccc31)-c1csc(n1)C[C@H](NC(=O)[C@H](C(C)C)N(C)C(=O)N1CC(C3COC3)C1)C(=O)N1CCC[C@H](N1)C(=O)OCC(C)(C)C2 [Example A465],0.01 to 0.1 µM,0.01 to 0.1 µM,0.01 to 0.1 µM,0.01 to 0.1 µM,0.01 to 0.1 µM,0.01 to 0.1 µM,0.01 to 0.1 µM,0.01 to 0.1 µM,0.1 to 1 µM,0.01 to 0.1 µM,0.1 to 1 µM,0.01 to 0.1 µM,< 0.01 µM,< 0.01 µM,–,–
"CCn1c(-c2cccnc2[C@H](C)OC)c2c3cc(ccc31)-c1csc(n1)C[C@H](NC(=O)[C@H](C(C)C)N(C)C(=O)N1CC[C@@H](N(C)C)C1)C(=O)N1CCC[C@H](N1)C(=O)OCC(C)(C)C2 (atropisomer, axis not shown) [Example A566]",0.1 to 1 µM,0.01 to 0.1 µM,0.1 to 1 µM,0.01 to 0.1 µM,0.1 to 1 µM,0.1 to 1 µM,0.1 to 1 µM,0.1 to 1 µM,0.1 to 1 µM,0.1 to 1 µM,0.1 to 1 µM,0.1 to 1 µM,0.01 to 0.1 µM,–,–,0.01 to 0.1 µM
"CCn1c(-c2cccnc2[C@H](C)OC)c2c3cc(ccc31)-c1csc(n1)C[C@H](NC(=O)[C@H](C(C)C)N(C)C(=O)N1CCO[C@@H](C)C1)C(=O)N1CCC[C@H](N1)C(=O)OCC(C)(C)C2 (atropisomer, axis not shown) [Example A309]",0.01 to 0.1 µM,0.01 to 0.1 µM,0.01 to 0.1 µM,0.01 to 0.1 µM,0.1 to 1 µM,0.1 to 1 µM,0.1 to 1 µM,0.1 to 1 µM,0.1 to 1 µM,0.01 to 0.1 µM,0.1 to 1 µM,0.01 to 0.1 µM,< 0.01 µM,–,–,0.01 to 0.1 µM
"CCn1c(-c2cc(N3CCN(C)CC3)cnc2[C@H](C)OC)c2c3cc(ccc31)-c1csc(n1)C[C@H](NC(=O)[C@H](C(C)C)N(C)C(=O)N1CC(N(C)C)C1)C(=O)N1CCC[C@H](N1)C(=O)OCC(C)(C)C2 (atropisomer, axis not shown) [Example A477]",0.01 to 0.1 µM,0.01 to 0.1 µM,0.01 to 0.1 µM,0.01 to 0.1 µM,0.1 to 1 µM,0.1 to 1 µM,0.01 to 0.1 µM,0.1 to 1 µM,0.1 to 1 µM,0.01 to 0.1 µM,0.1 to 1 µM,0.01 to 0.1 µM,< 0.01 µM,–,–,< 0.01 µM
"CCn1c(-c2cccnc2[C@H](C)OC)c2c3cc(ccc31)-c1csc(n1)C[C@H](NC(=O)[C@H](C(C)C)N(C)C(=O)N(C)C1CCC1)C(=O)N1CCC[C@H](N1)C(=O)OCC(C)(C)C2 (atropisomer, axis not shown) [Example A349]",0.01 to 0.1 µM,0.01 to 0.1 µM,0.01 to 0.1 µM,0.01 to 0.1 µM,0.01 to 0.1 µM,0.01 to 0.1 µM,0.01 to 0.1 µM,0.01 to 0.1 µM,0.01 to 0.1 µM,0.01 to 0.1 µM,0.1 to 1 µM,0.01 to 0.1 µM,0.01 to 0.1 µM,–,–,0.1 to 1 µM

# The next lines start with results.
IC50 (NRAS Q61R),IC50 (NRAS Q61K),IC50 (NRAS WT),IC50 (KRAS Q61H),IC50 (KRAS G12S),IC50 (KRAS G13C),IC50 (KRAS G12V),IC50 (KRAS WT),IC50 (KRAS G13D),IC50 (NRAS G12C),IC50 (KRAS G12D),IC50 (KRAS G12C),IC50 (NCI-H358 (K-Ras G12C); [3]),SMILES,IC50 (Capan-1 (K-Ras G12V); [1]),"IC50 (NCI-H358 (K-Ras G12C); read-out: H358 Cell Viability assay data (K-Ras G12C, IC50, uM), 5-day treatment)",IC50 (Capan-1 (K-Ras G12V); [2])
0.1 to 1 µM,0.1 to 1 µM,0.01 to 0.1 µM,0.01 to 0.1 µM,0.01 to 0.1 µM,0.1 to 1 µM,0.1 to 1 µM,0.01 to 0.1 µM,0.1 to 1 µM,0.01 to 0.1 µM,0.1 to 1 µM,0.01 to 0.1 µM,0.01 to 0.1 µM,CCn1c(-c2cccnc2[C@H](C)OC)c2c3cc(ccc31)-c1csc(n1)C[C@H](NC(=O)[C@H](C(C)C)N(C)C(=O)N1CCCC13CCN(C)CC3)C(=O)N1CCC[C@H](N1)C(=O)OCC(C)(C)C2 [Example A498],–,–,0.1 to 1 µM
0.01 to 0.1 µM,0.01 to 0.1 µM,0.01 to 0.1 µM,0.01 to 0.1 µM,0.01 to 0.1 µM,0.01 to 0.1 µM,0.01 to 0.1 µM,0.01 to 0.1 µM,0.01 to 0.1 µM,0.01 to 0.1 µM,0.1 to 1 µM,0.01 to 0.1 µM,0.1 to 1 µM,CCn1c(-c2cccnc2[C@H](C)OC)c2c3cc(ccc31)-c1cc(O)cc(c1)C[C@H](NC(=O)[C@H](C(C)C)N(C)C(=O)C1CCC(C3CCCO3)O1)C(=O)N1CCC[C@H](N1)C(=O)OCC(C)(C)C2 (stereo partly shown) [Example A396],–,–,0.1 to 1 µM
0.01 to 0.1 µM,0.01 to 0.1 µM,0.01 to 0.1 µM,< 0.01 µM,0.01 to 0.1 µM,0.01 to 0.1 µM,0.01 to 0.1 µM,0.01 to 0.1 µM,0.01 to 0.1 µM,0.01 to 0.1 µM,0.01 to 0.1 µM,< 0.01 µM,< 0.01 µM,"CCn1c(-c2cccnc2[C@H](C)OC)c2c3cc(ccc31)-c1cc(O)cc(c1)C[C@H](NC(=O)[C@H](C(C)C)N(C)C(=O)[C@@H]1OCC[C@@H]1c1cccnc1)C(=O)N1CCC[C@H](N1)C(=O)OCC(C)(C)C2 (atropisomer, axis not shown) [Example A546]",–,–,0.01 to 0.1 µM
0.1 to 1 µM,0.01 to 0.1 µM,0.1 to 1 µM,0.01 to 0.1 µM,0.1 to 1 µM,0.1 to 1 µM,0.1 to 1 µM,0.1 to 1 µM,0.1 to 1 µM,0.01 to 0.1 µM,0.1 to 1 µM,0.01 to 0.1 µM,< 0.01 µM,"CCn1c(-c2cccnc2[C@H](C)OC)c2c3cc(ccc31)-c1csc(n1)C[C@H](NC(=O)[C@H](C(C)C)N(C)C(=O)N1CC(C#N)C1)C(=O)N1CCC[C@H](N1)C(=O)OCC(C)(C)C2 (atropisomer, axis not shown) [Example A382]",–,–,0.01 to 0.1 µM
